Reference: the supplement of paper PMC10307832

What was measured:
Experiment in all cases: relative viability (nuclei count vs DMSO), 5 days (fraction); higher = more cells survive
[1] = system: COR-L 105
Method in brief: (§1)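 Five library-drug doses in √10 steps were combined with a fixed anchor-drug dose, or a single drug was given alone, by pin tool to lung cancer cell lines in 1536-well plates the day after seeding. Nuclei were stained and counted after 5 days. Relative viability is the nuclei count in treated wells over that in vehicle wells, taken as the median of duplicate plates.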

[2] = system: ChaGo-K-1
Method in brief: as §1

[3] = system: EPLC-272H
Method in brief: as §1

[4] = system: HCC-15
Method in brief: as §1

[5] = system: HCC-366
Method in brief: as §1

[6] = system: HCC-44
Method in brief: as §1

[7] = system: HCC-78
Method in brief: as §1

[8] = system: HCC-827
Method in brief: as §1

[9] = system: NCI-H1437
Method in brief: as §1

[10] = system: NCI-H1792
Method in brief: as §1

[11] = system: NCI-H1944
Method in brief: as §1

[12] = system: NCI-H2085
Method in brief: as §1

[13] = system: NCI-H3122
Method in brief: as §1

[14] = system: NCI-H727
Method in brief: as §1

[15] = system: PC-14
Method in brief: as §1

[16] = system: SK-LU-1
Method in brief: as §1

[17] = system: SK-MES-1
Method in brief: as §1

[18] = system: UMC-11
Method in brief: as §1

[19] = system: LCLC-103H
Method in brief: as §1

[20] = system: NCI-H661
Method in brief: as §1

Work on `COCC1(CO)C(=O)C2CCN1CC2` (centres undefined) [PRIMA-1MET] + CC1(C)CCC(c2ccc(Cl)cc2)=C(CN2CCN(c3ccc(C(=O)NS(=O)(=O)c4ccc(N[C@H](CCN5CCOCC5)CSc5ccccc5)c(S(=O)(=O)C(F)(F)F)c4)cc3)CC2)C1 [Navitoclax] (partner 0.5 µM) yielded a relative viability ([1]; first compound 0.2 µM) of 0.826, a relative viability ([1]; first compound 0.6325 µM) of 0.513 and a relative viability ([1]; first compound 2 µM) of 0.761. The relative viability ([1]; first compound 6.325 µM) was 0.671, the relative viability ([1]; first compound 20 µM) was 0.211 and the relative viability ([2]; first compound 0.2 µM) was 1.08. The relative viability ([2]; first compound 0.6325 µM) was 0.667, the relative viability ([2]; first compound 2 µM) was 1.11 and the relative viability ([2]; first compound 6.325 µM) was 1.11. The relative viability ([2]; first compound 20 µM) was 0.404, the relative viability ([3]; first compound 0.2 µM) was 1.33 and the relative viability ([3]; first compound 0.6325 µM) was 0.933. For the same molecule, the relative viability ([3]; first compound 2 µM) was 1.15, the relative viability ([3]; first compound 6.325 µM) was 1.15 and the relative viability ([3]; first compound 20 µM) was 0.989. It also gave a relative viability ([4]; first compound 0.2 µM) of 0.772, a relative viability ([4]; first compound 0.6325 µM) of 0.686 and a relative viability ([4]; first compound 2 µM) of 0.694. For the same molecule, the relative viability ([4]; first compound 6.325 µM) was 0.713, the relative viability ([4]; first compound 20 µM) was 0.455 and the relative viability ([5]; first compound 0.2 µM) was 1.27. It also gave a relative viability ([5]; first compound 0.6325 µM) of 0.959, a relative viability ([5]; first compound 6.325 µM) of 0.981 and a relative viability ([5]; first compound 20 µM) of 0.024. It also gave a relative viability ([6]; first compound 0.2 µM) of 1.05, a relative viability ([6]; first compound 0.6325 µM) of 0.689 and a relative viability ([6]; first compound 2 µM) of 0.916. For the same molecule, the relative viability ([6]; first compound 6.325 µM) was 1.03, the relative viability ([6]; first compound 20 µM) was 0.931 and the relative viability ([7]; first compound 0.2 µM) was 0.876. The relative viability ([7]; first compound 0.6325 µM) was 0.77, the relative viability ([7]; first compound 6.325 µM) was 0.787 and the relative viability ([7]; first compound 20 µM) was 0.0496. For the same molecule, the relative viability ([8]; first compound 0.2 µM) was 1.01, the relative viability ([8]; first compound 0.6325 µM) was 0.9 and the relative viability ([8]; first compound 2 µM) was 0.721. The relative viability ([8]; first compound 6.325 µM) was 1, the relative viability ([8]; first compound 20 µM) was 1.03 and the relative viability ([9]; first compound 0.2 µM) was 1.14. It also gave a relative viability ([9]; first compound 0.6325 µM) of 1.05, a relative viability ([9]; first compound 2 µM) of 1.08 and a relative viability ([9]; first compound 6.325 µM) of 1.14. For the same molecule, the relative viability ([9]; first compound 20 µM) was 0.968, the relative viability ([10]; first compound 0.2 µM) was 0.525 and the relative viability ([10]; first compound 0.6325 µM) was 0.48. For the same molecule, the relative viability ([10]; first compound 2 µM) was 0.589, the relative viability ([10]; first compound 6.325 µM) was 0.617 and the relative viability ([10]; first compound 20 µM) was 0.544. It also gave a relative viability ([11]; first compound 0.2 µM) of 1.18, a relative viability ([11]; first compound 0.6325 µM) of 0.892 and a relative viability ([11]; first compound 6.325 µM) of 1.02. The relative viability ([11]; first compound 20 µM) was 1.08, the relative viability ([12]; first compound 0.2 µM) was 1.2 and the relative viability ([12]; first compound 0.6325 µM) was 1.04. It also gave a relative viability ([12]; first compound 2 µM) of 1.09, a relative viability ([12]; first compound 6.325 µM) of 0.734 and a relative viability ([12]; first compound 20 µM) of 0.364. For the same molecule, the relative viability ([13]; first compound 0.2 µM) was 0.926, the relative viability ([13]; first compound 0.6325 µM) was 1.02 and the relative viability ([13]; first compound 2 µM) was 1.05. For the same molecule, the relative viability ([13]; first compound 6.325 µM) was 1.01, the relative viability ([13]; first compound 20 µM) was 0.976 and the relative viability ([14]; first compound 0.2 µM) was 0.54. For the same molecule, the relative viability ([14]; first compound 0.6325 µM) was 0.41, the relative viability ([14]; first compound 2 µM) was 0.398 and the relative viability ([14]; first compound 6.325 µM) was 0.311. It also gave a relative viability ([14]; first compound 20 µM) of 0.105, a relative viability ([15]; first compound 0.2 µM) of 0.951 and a relative viability ([15]; first compound 0.6325 µM) of 0.932. The relative viability ([15]; first compound 2 µM) was 0.936, the relative viability ([15]; first compound 6.325 µM) was 1.03 and the relative viability ([15]; first compound 20 µM) was 0.929. It also gave a relative viability ([16]; first compound 0.2 µM) of 0.848, a relative viability ([16]; first compound 0.6325 µM) of 1.06 and a relative viability ([16]; first compound 2 µM) of 0.789. The relative viability ([16]; first compound 6.325 µM) was 1.15, the relative viability ([16]; first compound 20 µM) was 0.0933 and the relative viability ([17]; first compound 0.2 µM) was 1.2. For the same molecule, the relative viability ([17]; first compound 0.6325 µM) was 1.28, the relative viability ([17]; first compound 2 µM) was 1.19 and the relative viability ([17]; first compound 6.325 µM) was 1.27. It also gave a relative viability ([17]; first compound 20 µM) of 1.23, a relative viability ([18]; first compound 0.2 µM) of 0.347 and a relative viability ([18]; first compound 0.6325 µM) of 0.268. It also gave a relative viability ([18]; first compound 2 µM) of 0.332, a relative viability ([18]; first compound 6.325 µM) of 0.331 and a relative viability ([18]; first compound 20 µM) of 0.333.

In the case of `COCC1(CO)C(=O)C2CCN1CC2` (centres undefined) [PRIMA-1MET] + CC(C)C[C@H](NC(=O)[C@H](Cc1ccccc1)NC(=O)c1cnccn1)B(O)O [Bortezomib] (partner 0.002 µM), the relative viability ([1]; first compound 0.2 µM) is reported as 1.12, the relative viability ([1]; first compound 0.6325 µM) is reported as 0.588 and the relative viability ([1]; first compound 2 µM) is reported as 0.544. The relative viability ([1]; first compound 6.325 µM) was 0.715, the relative viability ([1]; first compound 20 µM) was 0.163 and the relative viability ([2]; first compound 0.2 µM) was 1.21. It also gave a relative viability ([2]; first compound 0.6325 µM) of 0.83, a relative viability ([2]; first compound 2 µM) of 1.28 and a relative viability ([2]; first compound 6.325 µM) of 0.988. The relative viability ([2]; first compound 20 µM) was 0.32, the relative viability ([3]; first compound 0.2 µM) was 1.03 and the relative viability ([3]; first compound 0.6325 µM) was 0.847. It also gave a relative viability ([3]; first compound 2 µM) of 0.966, a relative viability ([3]; first compound 6.325 µM) of 1.2 and a relative viability ([3]; first compound 20 µM) of 0.686. The relative viability ([4]; first compound 0.2 µM) was 1.02, the relative viability ([4]; first compound 0.6325 µM) was 0.902 and the relative viability ([4]; first compound 2 µM) was 1.12. The relative viability ([4]; first compound 6.325 µM) was 0.988, the relative viability ([4]; first compound 20 µM) was 0.583 and the relative viability ([5]; first compound 0.2 µM) was 1.15. It also gave a relative viability ([5]; first compound 0.6325 µM) of 0.838, a relative viability ([5]; first compound 6.325 µM) of 1.01 and a relative viability ([5]; first compound 20 µM) of 0.0138. For the same molecule, the relative viability ([6]; first compound 0.2 µM) was 0.971, the relative viability ([6]; first compound 0.6325 µM) was 0.76 and the relative viability ([6]; first compound 2 µM) was 0.927. The relative viability ([6]; first compound 6.325 µM) was 0.911, the relative viability ([6]; first compound 20 µM) was 0.877 and the relative viability ([7]; first compound 0.2 µM) was 0.694. The relative viability ([7]; first compound 0.6325 µM) was 0.521, the relative viability ([7]; first compound 2 µM) was 0.452 and the relative viability ([7]; first compound 6.325 µM) was 0.485. The relative viability ([7]; first compound 20 µM) was 0.0823, the relative viability ([8]; first compound 0.2 µM) was 1.13 and the relative viability ([8]; first compound 0.6325 µM) was 1.01. For the same molecule, the relative viability ([8]; first compound 2 µM) was 0.971, the relative viability ([8]; first compound 6.325 µM) was 1.1 and the relative viability ([8]; first compound 20 µM) was 0.956. The relative viability ([19]; first compound 0.2 µM) was 1.35, the relative viability ([19]; first compound 0.6325 µM) was 1.03 and the relative viability ([19]; first compound 2 µM) was 1.04. It also gave a relative viability ([19]; first compound 6.325 µM) of 0.934, a relative viability ([19]; first compound 20 µM) of 1 and a relative viability ([9]; first compound 0.2 µM) of 0.573. The relative viability ([9]; first compound 0.6325 µM) was 0.403, the relative viability ([9]; first compound 2 µM) was 0.538 and the relative viability ([9]; first compound 6.325 µM) was 0.594. For the same molecule, the relative viability ([9]; first compound 20 µM) was 0.432, the relative viability ([10]; first compound 0.2 µM) was 0.959 and the relative viability ([10]; first compound 0.6325 µM) was 0.851. The relative viability ([10]; first compound 2 µM) was 0.937, the relative viability ([10]; first compound 6.325 µM) was 1 and the relative viability ([10]; first compound 20 µM) was 0.939. The relative viability ([12]; first compound 0.2 µM) was 1.08, the relative viability ([12]; first compound 0.6325 µM) was 0.978 and the relative viability ([12]; first compound 2 µM) was 0.856. It also gave a relative viability ([12]; first compound 6.325 µM) of 0.609, a relative viability ([12]; first compound 20 µM) of 0.392 and a relative viability ([13]; first compound 0.2 µM) of 0.865. For the same molecule, the relative viability ([13]; first compound 0.6325 µM) was 1.01, the relative viability ([13]; first compound 2 µM) was 0.955 and the relative viability ([13]; first compound 6.325 µM) was 0.986. It also gave a relative viability ([13]; first compound 20 µM) of 0.999, a relative viability ([20]; first compound 0.2 µM) of 0.846 and a relative viability ([20]; first compound 0.6325 µM) of 0.69. It also gave a relative viability ([20]; first compound 6.325 µM) of 0.817, a relative viability ([20]; first compound 20 µM) of 0.623 and a relative viability ([14]; first compound 0.2 µM) of 0.573. For the same molecule, the relative viability ([14]; first compound 0.6325 µM) was 0.829, the relative viability ([14]; first compound 2 µM) was 0.618 and the relative viability ([14]; first compound 6.325 µM) was 0.573. It also gave a relative viability ([14]; first compound 20 µM) of 0.0549, a relative viability ([15]; first compound 0.2 µM) of 0.98 and a relative viability ([15]; first compound 0.6325 µM) of 0.722. For the same molecule, the relative viability ([15]; first compound 2 µM) was 0.856, the relative viability ([15]; first compound 6.325 µM) was 1.08 and the relative viability ([15]; first compound 20 µM) was 0.884. The relative viability ([16]; first compound 0.2 µM) was 1.42, the relative viability ([16]; first compound 0.6325 µM) was 1.07 and the relative viability ([16]; first compound 6.325 µM) was 1.2. The relative viability ([16]; first compound 20 µM) was 0.617, the relative viability ([18]; first compound 0.2 µM) was 0.778 and the relative viability ([18]; first compound 0.6325 µM) was 0.407. The relative viability ([18]; first compound 2 µM) was 0.666, the relative viability ([18]; first compound 6.325 µM) was 0.771 and the relative viability ([18]; first compound 20 µM) was 0.777.
